In patent publication US8686016B2, “Schweinfurthins and uses thereof” (The United States of America, as represented by the …, priority 2009, dated 2014):
“Also recorded” adds a separate entry of the source.

Legend:
[1] = tested on: KR158 cells transduced with empty vector (PMSCV); assay: XTT cell proliferation assay, KR158 empty vector; assay type: cell-based, mouse; conditions: two-day cell proliferation assay
Description: (§1) XTT Cell Proliferation Assay: Cells were seeded into 96-well plates at a density of 2,000 cells/well and allowed to reattach overnight. Cells were treated with SA, synthetic analogs, camptothecin (NCI Chemotherapeutics Repository, Md., USA), or DMSO control at the indicated concentrations continuously for 48 hours followed by assay in the 96-well plate for relative viable cell number using the dye […] (XTT) and a Wallac-Victor 2 plate reader (Perkin-Elmer, Waltham, Mass., USA). Absorbance was determined at 450 nm with 650 nm as a reference reading. Primary astrocytes were additionally assayed at a 96 hour time point.
Constructs and Transfections: NF1-GRD retroviral constructs were obtained from Indiana University. Cells transduced with the NF1-GRD construct or PMSCV empty vector control as previously described (Hiatt et al., J. Biol. Chem., 2001, 276:7240-5) were maintained in 1 μg/mL puromycin (Sigma).

[2] = tested on: sporadic MPNST STS26T cells; assay: XTT cell proliferation assay, STS26T; assay type: cell-based, human
Description: as §1
Cell lines and culture: Human MPNST cell lines (STS26T and T265) were obtained from the Pediatric Oncology Branch, NCI (Bethesda, Md., USA).

[3] = tested on: A549 cells; assay: Cell morphology / actin confocal microscopy, A549; assay type: cell-based, human; conditions: 18 hours treatment
Description: Cell Morphology Assays and Confocal Microscopy: To assay cytoskeleton morphology, KR158 cells, mouse primary astrocytes, KR158 clones expressing the NF1-GRD constructs, K14553 cells, and A549 were seeded to cover slips and allowed to reattach overnight. Cells were treated for 18 hours with either the indicated concentrations of SA, or the vehicle control DMSO. The cover slips were fixed in 3.7% paraformaldehyde, permeablized in 0.1% Triton-X100, and stained with Alexa Fluor 488-phalloidin (Invitrogen, Carlsbad, Calif., USA) to detect actin and cells were mounted in Prolong Antifade containing DAPI (Invitrogen) to stain nuclei. The cells were imaged on a LSM510 confocal microscope (Carl Zeiss Inc., Jena, Germany). For phospho-myosin light chain 2 (MLC) detection, cells were seeded to coverslips as described above. Cells were serum starved in 0.5% FBS and SA or DMSO vehicle control for 18 hours, and then pulsed with 10 ng/mL EGF (Invitrogen) for 5 min. […] Actin structures were monitored continuously over a 16 hr period using confocal microscopy equipped with a growth chamber (37° C., humidified atmosphere and 5% CO2). […]

[4] = tested on: SF-295 human glioma cells; assay: Clonogenic assay, SF-295; assay type: cell-based; conditions: 18 hrs treatment, colonies after one week
Description: Clonogenic Assays: Monolayers of cells were treated for 18 hrs with SA, and then harvested, counted, and seeded to 35 mm dishes at a density of 1000 cells per dish. After one week, macroscopic colonies were stained with crystal violet (Sigma, St. Louis, Mo., USA) and counted.

[5] = tested on: KR158 cells stably transfected with GFP-actin; assay: Cell morphology / actin confocal microscopy, KR158 GFP-actin; assay type: cell-based, mouse; conditions: 16-18 hrs treatment
Description: Doxorubicin studies: KR158 stably transfected with GFP-actin were treated with 25 and 50 μM doxorubicin for 18 hrs continuously.
Cell Morphology Assays and Confocal Microscopy: To assay cytoskeleton morphology, KR158 cells, mouse primary astrocytes, KR158 clones expressing the NF1-GRD constructs, K14553 cells, and A549 were seeded to cover slips and allowed to reattach overnight. Cells were treated for 18 hours with either the indicated concentrations of SA, or the vehicle control DMSO. The cover slips were fixed in 3.7% paraformaldehyde, permeablized in 0.1% Triton-X100, and stained with Alexa Fluor 488-phalloidin (Invitrogen, Carlsbad, Calif., USA) to detect actin and cells were mounted in Prolong Antifade containing DAPI (Invitrogen) to stain nuclei. The cells were imaged on a LSM510 confocal microscope (Carl Zeiss Inc., Jena, Germany). […] KR158 GFP-actin transfected cells were seeded to 8-well chamber slides, allowed to reattach, and then treated with indicated concentrations of SA. Actin structures were monitored continuously over a 16 hr period using confocal microscopy equipped with a growth chamber (37° C., humidified atmosphere and 5% CO2). To compare SA to Rho/Rock inhibitors, KR158 GFP-actin cells were treated with SA or with the Rho pathway inhibitors Rock inhibitor Y-27632 (Sigma, St. Louis, Mo., USA), and the Rho inhibitor C3 transferase (Cytoskeleton, Inc., Denver, Colo., USA, cat# CT04) for 16 hrs, and then examined by confocal microscopy.

[6] = tested on: SNB-75; assay: NCI60 cell line response to SA, SNB-75; assay type: cell-based, human; conditions: SNB-75, doubling time 62.8 hours
[7] = tested on: SF-295 cells; assay: XTT cell proliferation assay, SF-295; assay type: cell-based, human; conditions: 48 hours
Description: as §1

In the case of `CC(C)=CCC/C(C)=C/Cc1c(O)cc(/C=C/c2cc(O)c3c(c2)C[C@@H]2C(C)(C)[C@H](O)[C@H](O)C[C@@]2(C)O3)cc1O` [SA, Schweinfurthin A], the inhibition of proliferation [1] is reported as “highly active”, the inhibition of proliferation [2] is reported as “much weaker inhibition of proliferation; also recorded: are not” and the “actin organization, phalloidin staining” value [3] is reported as “no visible changes in actin organization”. For the same compound, the colony growth [4] was “inhibited; also recorded: dramatically restricted”, the “F-actin staining / stress fibers” value [5] was “dramatic loss of F-actin staining” and the logGI50 [6] was −7.82. For the same compound, the “inhibition of proliferation (percent viability versus control)” value [7] was “sensitive; also recorded: inhibited both the KR158 and SF-295 cell lines in a dose dependent manner”.
